How the values were obtained:
[1] = system: Rhodococcus rhodochrous ATCC #53968; assay: Digestion of Red River crude oil with and without beta-oxidation inhibitors; GC of methyl esters of extracted organic acids; type: cell-based; conditions: for Total GC (all peaks integrated by the GC integrator): 0.31 g oil sample; for conv. To umoles FA: approximately 1.0 micromoles per 100 area units; for Cal. AN (calculated acid number): estimated from GC areas
Description: (§1) An oil degrading microorganism was used to evaluate the use of chemical inhibitors to slow the utilization of hydrocarbons in petroleum. In a non-limiting example, three different chemical compounds that have been reported to inhibit beta-oxidation were tested in oil and culture medium on a petroleum sample with a strain of Rhodococcus rhodochrous ATCC #53968 in m9 minimal medium. To test the ability of each chemical inhibitor to slow the consumption of fatty acids a culture of bacteria was grown on a crude oil sample for a period of three days with crude petroleum oil as the only carbon source. Four separate flasks were set up, each with an oil to aqueous media ratio of 1 to 5 (10 ml of crude oil to 50 ml of culture medium). Each of the three chemical inhibitors was added to a separate flask and a fourth flask was allowed to digest without the addition of a chemical inhibitor as a control. The flasks were shaken at a room temperature of about 25° C. under aerobic conditions. The progress of the microbial digestion was monitored by the optical density at 600 nm and by visual inspection of the brown oil color in the aqueous phase. Three days after the addition of inhibitors, or a total of six days of incubation with oil, a small sample of oil (0.31 g) was removed. A second sample of the same size was remover after another 6 days. The organic acids were extracted from each oil sample with 1% NaOH in 70% ethanol. The samples were shaken vigorously for one minute. The aqueous extract material was then extracted with hexane to remove any trace of oil. The samples of extracted organic acids were then dried under vacuum and converted to methyl esters with BF3 in methanol.
The mixtures of methyl esters were analyzed by GC (gas chromatography) using a HP (Hewlett Packard) 5890 GC with an Agilent Technologies capillary column, HP-5 (crosslinked 5% PH) ME Siloxane 0.25 micrometer coating with a length of 30 meter and a column ID (internal diameter) of 0.32 mm. Helium was used as a carrier gas. Detection was by a FID detector and integration of peak areas was done with a HP 3396 integrator. The temperature program held an initial temperature of 40° C. for 1.0 minutes then increased at 15 degrees per minute to 280° C., and finally held at a temperature of 280° C. for 5 minutes. To quantify the amount of organic acids extracted by this procedure, a stock solution of 2-bromooctanoate and 2-bromohexadecanoate were added to a sample of undigested Red River crude petroleum oil and then extracted by the same procedure as the bio-digested oil samples. The average area for theses two organic acids was used to estimate the amount of organic acids in micromoles per area unit determined by the GC integrator. The number was calculated to be approximately 1.0 micromoles per 100 area units. The area units for each of the GC peaks are list in Table 2. This number was used to estimate the micromoles organic acids extracted from the oil. This estimate was used to calculate the number of mg of KOH that equaled the number of micromoles of organic acid estimated. This number is listed on the last row in Table 2 as the calculated AN (acid number) for each digestion experiment. These estimated numbers are only based on organic acids that are hydrophobic enough to stay in the oil phase and not move into the aqueous phase. Organic acids measured include the carboxylic acids made by the bacteria and that have been secreted out of the cell and have migrated back to the oil phase. They are also hydrocarbons that are small enough to be extracted into the ethanol aqueous extraction solvent. This number is likely to be less than the total acid number (TAN), a measure often used to evaluate crude petroleum for amenability to alkaline waterflooding.
The earlier eluting peaks are believed to represent methyl ester of lighter hydrocarbon carboxylic acids and the later eluting peaks are believed to represent methyl ester of the heavier organic acids. […]

[2] = system: Rhodococcus rhodochrous ATCC #53968; assay: Growth of bacteria on crude oil with inhibitors, optical density at 600 nm; type: cell-based
Description: as §1
Digestion with the bacteria increases the total amount of carboxylic acids in all the samples. The digestions with the chemical beta-oxidation inhibitors produce about the same or a little more total methyl ester peaks than the bacterial digestion without an inhibitor. […] The later eluting peaks increase at a faster rate with the inhibitors than without. For example, the 12 day sample with no inhibitor increase from 5.9 to 45.9 area units for peaks up to 13 minutes. The sample with the acrylic acid inhibitor has an increase of from 5.9 to 43.7 area units, which is less than without inhibitor. The later eluting peaks increase from 3.6 to 14.3 without the inhibitor, but with acrylic acid the later peak areas increase to 22.5 area units. […] After 6 days of digestion the optical density had reached 2.23 for the uninhibited digestion as compared to 0.49 for the acrylic acid inhibited sample and 1.84 for the 2-bromooctanoic acid and 2.4 for the 2-bromohexadeconoic acid. After 12 days of digestion the uninhibited sample had reached 4.0 and the acrylic acid had increased to 1.7 and 2.2 and 2.4 for the other two inhibitors. Therefore, by this experimental analysis one can determine which inhibitors increase the carboxylic acid content or the acid number of the oil fastest with the least amount of oil consumption. The oil consumption can be determined by quantitation of remaining oil or by growth of bacteria were oil is the only carbon source. It appears that all the inhibitors helped reduce the utilization of fatty acids and the consumption of oil while producing an increase in acid number.

## CCCCCCC(Br)C(=O)O (stereo not drawn) [Br C8, 2-bromooctanoic acid]
[1]; 6 days
  GC peak area, retention time 4.5: 0.351 area units
  GC peak area, retention time 5.6: 0.835 area units
  GC peak area, retention time 6.6: 2.783 area units
  GC peak area, retention time 7.6: 2.476 area units
  GC peak area, retention time 8.2: 0.682 area units
  GC peak area, retention time 8.5: 1.443 area units
  GC peak area, retention time 9.4: 1.146 area units
  GC peak area, retention time 10.2: 1.618 area units
  GC peak area, retention time 11: 2.608 area units
  GC peak area, retention time 11.5: 1.69 area units
  GC peak area, retention time 11.7: 3.004 area units
  GC peak area, retention time 12.3: 1.604 area units
  GC peak area, retention time 12.5: 4.566 area units
  GC peak area, retention time 12.7: 1.145 area units
  GC peak area, retention time 13: 1.421 area units
  GC peak area, retention time 13.1: 2.61 area units
  GC peak area, retention time 13.2: 3.047 area units
  GC peak area, retention time 13.4: 2.196 area units
  GC peak area, retention time 13.6: 1.314 area units
  GC peak area, retention time 13.8: 3.341 area units
  GC peak area, retention time 14: 1.661 area units
  GC peak area, retention time 14.2: 0.963 area units
  SubTotal peak area, later peaks eluting after 13 minutes: 16.553 area units
  SubTotal peak area, peaks eluting before 13 minutes: 25.951 area units
  Total GC area For 1 ml: 250
  Total of all selected peaks: 42.504 area units
  Total GC (all peaks integrated by the GC integrator): 77.5 area units
  conv. To umoles FA: 2.5 µmol
  Cal. AN (calculated acid number): 0.14 mg of KOH
[1]; 12 days
  GC peak area, retention time 4.2: 0.47 area units
  GC peak area, retention time 4.5: 0.943 area units
  GC peak area, retention time 5.6: 1.656 area units
  GC peak area, retention time 6.6: 4.625 area units
  GC peak area, retention time 7.6: 3.349 area units
  GC peak area, retention time 8.2: 0.497 area units
  GC peak area, retention time 8.5: 1.763 area units
  GC peak area, retention time 9.4: 0.681 area units
  GC peak area, retention time 10.2: 0.387 area units
  GC peak area, retention time 11: 0.985 area units
  GC peak area, retention time 11.5: 3.548 area units
  GC peak area, retention time 11.7: 2.41 area units
  GC peak area, retention time 12.3: 2.973 area units
  GC peak area, retention time 12.5: 5.664 area units
  GC peak area, retention time 13: 2.785 area units
  GC peak area, retention time 13.1: 4.367 area units
  GC peak area, retention time 13.2: 7.327 area units
  GC peak area, retention time 13.4: 8.161 area units
  GC peak area, retention time 13.6: 4.176 area units
  GC peak area, retention time 13.8: 4.901 area units
  GC peak area, retention time 14: 4.709 area units
  GC peak area, retention time 14.2: 1.74 area units
  SubTotal peak area, later peaks eluting after 13 minutes: 38.166 area units
  SubTotal peak area, peaks eluting before 13 minutes: 31.453 area units
  Total GC area For 1 ml: 373
  Total of all selected peaks: 69.619 area units
  Total GC (all peaks integrated by the GC integrator): 115.7 area units
  conv. To umoles FA: 3.73 µmol
  Cal. AN (calculated acid number): 0.21 mg of KOH
[2]; after 6 days of digestion, crude oil only carbon source
  optical density: 1.84
[2]; after 12 days of digestion
  optical density: 2.2

— patent US9290688B2, “Alkaline microbial enhanced oil recovery” (GEO FOSSIL FUELS, LLC, priority 2011, dated 2016)
